# Assays:
# [1] = tested on: corticospinal tract (CST) axons; assay: BDA anterograde tracing of CST fibers from the undamaged hemisphere into the denervated side of the spinal cord after stroke; format: in vivo, rat
# Procedure: All procedures were carried out in accordance with NIH Guidelines with the approval of Children's Hospital Animal Care and Use Committee. Unilateral in-farcts were induced in the sensorimotor cortex of adult Sprague-Dawley rats (275-300 g; Charles River Laboratories, Wilmington, Mass.) using the photothrombotic model of focal ischemia (Markgraf et al., 1993). Briefly, rats were anesthetized with a combination of ketamine (75 mg/kg) and Domitor (medetomidine; 0.5 mg/kg) and a 15 mm skin incision was made at the midline rostral to the posterior suture. A craniotomy was performed over the sensorimotor cortex using a hand-held drill to open a window that spanned medio-laterally between the sagittal sinus and temporal ridge, and rostro-caudally between Bregma +2.5 mm and Bregma −3.5 mm. The photosensitive dye Rose Bengal was injected into the femoral vein, and a fiber-optic cable connected to a xenon light source was centered over the craniotomy, focusing light directly on the exposed region of the brain for 30 minutes. A green filter fitted over the bulb restricted illumination to ˜525 nm, a wavelength that excites Rose Bengal and causes it to release free radical species. The subsequent damage to endothelial cells in exposed portions of the cortical vasculature causes platelet aggregation, resulting in severe focal ischemia. […] Control animals were generated using the same surgical procedure but without photo-activation of Rose Bengal. Animals with strokes were randomly assigned to receive a continuous infusion of either saline (0.9%, Baxter Scientific; n=12), inosine (50 mM in saline, Sigma-Aldrich Co., St. Louis, Mo.; n=12), NEP1-40 (500 μM in 2.5% DMSO/97.5% saline; n=12), or inosine +NEP1-40 (n=12) into the cisterna magna using osmotic minipumps (0.25 μl/h, Alzet model 2004, Durect Corpora-tion, Palo Alto, Calif.). In addition to these, a separate set of animals with the same 4 groups (n=12 in each) was created for a long-term behavioral study. Because CSF drug concentrations presumably require several hours to achieve steady-state levels when delivered via slow-releasing osmotic pumps, all animals received a 25 μl intraventricular bolus of the appropriate agent prior to pump placement. Pumps were tucked between the shoulder blades and infusion needles were secured onto the cranium with a silicon-based glue. The incision was closed with silk sutures and cleaned with betadine and ethanol pads. For 72 hours following surgery, animals received twice-daily, subcu-taneous injections of Buprenex (buprenorphine; Reckitt Benkiser Pharmaceuticals Inc., Richmond, Va.) for pain management.
# In groups treated for four weeks after stroke, animals were re-anesthetized, the infusion needle and pump were removed, and a craniotomy was performed over the uninjured SMA. The anterograde tracer bioti-nylated dextran amine (BDA: Molecular Probes: 10% wt/vol in sterile saline) was injected stereotaxically at depths of 0.5, 1.0, and 2.0 mm below the cortical surface at 18 standardized points distributed over the sensorimotor cortex (70 nl per injection; Nano-ject, Drummond Scientific, Broomall, Pa.). Two weeks later, animals were anesthetized and perfused transcardially with 0.9% saline followed by 4% paraformaldehyde. The brain and spinal cord were dissected and post-fixed overnight in 4% paraformaldehyde, followed by 10% and 30% sucrose solutions over the next few days. Tissue was em-bedded in OCT Tissue Tek Medium (Sakura Finetek USA Inc., CA) and frozen on dry ice. Forty micron free-floating sections were cut in the coronal plane on a Frigo-Jung 8500 cryostat. Free-floating spinal cord sections were used to detect crossing fibers using avidin-biotin complex conjugated to horseradish peroxidase (Vectastain ABC Kit; Vector Laboratories), followed by Vector SG (Vector Laboratories) as a chromagen. Sections were mounted on pre-coated slides and lightly counterstained with eosin to distinguish grey and white matter boundaries. […]
# [2] = tested on: raphespinal fibers and corticospinal tract axons; assay: Anatomical sprouting of raphespinal and corticospinal tract axons after spinal cord injury; format: in vivo, rat; conditions: after dorsal hemisection
# Procedure: To test the effects of inosine on spinal cord injury, the dorsal half of the spinal cord in rats was transected, severing the descending CST and other pathways. CST loss severely disrupted fine, skilled behaviors. Inosine was then administered either intra-cerebroventricularly (50 mM, 0.25 μl/hour) or intravenously (260 mM, 10 μl/hour) for 4 weeks. […] Complete transection of the corticospinal tract was verified histologically. The effectiveness of inosine was clinically relevant, since it avoids the risk of intracerebral infection.
# [3] = 4 weeks treatment after stroke, vs saline
structure (smiles),measurement,setting,value
OC[C@H]1O[C@@H](n2cnc3c(O)ncnc32)[C@H](O)[C@@H]1O [inosine],number of synaptic bouton-like structures,"[1]; 0.25 mm^2 box spanning Laminae VI and VII, vs saline",tripled
same,increase in number of labeled fibers ≧40 μm in gray matter on the denervated side,[1]; [3],2.5 fold
same,increase in number of lengthy axons (>200 μm) in gray matter on the denervated side,[1]; [3],3.5 fold
same,"number of BDA-labeled CST fibers, inosine- vs saline-treated",[1]; CST axons labeled two weeks after stroke,No significant differences
same,"increase in number of CST fibers re-crossing the midline to enter the denervated dorsal funiculus, relative to controls",[1]; inosine 50 mM infusion 4 weeks after stroke,three-fold
same,number of CST fibers in the denervated dorsal funiculus relative to NEP1-40 alone,[1]; inosine combined with NEP1-40,did not increase
same,number of axons >40 μm in the cervical gray matter relative to NEP1-40 alone,[1]; inosine combined with NEP1-40,strongly increased
same,number of axons >200 μm in the cervical gray matter relative to NEP1-40 alone,[1]; inosine combined with NEP1-40,strongly increased
same,long-distance corticospinal tract regeneration,[2],modest effects
same,sprouting of corticospinal tract axons rostral to the injury site,[2],enhanced the sprouting
same,sprouting of raphespinal fibers distal to the injury site,[2],enhanced the sprouting

# From patent US8912144B2, “Method for treating stroke via administration of NEP1-40 and inosine” (Children's Medical Center Corporation, priority 2003, dated 2014)
